Several values for one entry are separate records, joined by “and”; a condition that tells them apart may be missing. Identical values can stand only once. Inconclusive results and toxic doses are left out. The calls were made as follows: active = survival T/C of 150% or more; inactive = T/C below 125% in these data.
Test system: CD2F1 mice, L1210 leukemia ip, survival T/C
Assay: NCI In Vivo Anticancer Drug Screen. Data for tumor model L1210 Leukemia (intraperitoneal) in CD2F1 (CDF1) mice
Details: higher = longer survival
In short: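 Mice carrying a transplanted tumor received test compound or vehicle alone. The value is the measurement in the treated group divided by that in the vehicle-treated control group.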

[1] = endpoint: mean survival time, dose: 100.0 mg/kg/injection, schedule: Q04DX003 (ip), vehicle: saline with Tween-80
[2] = endpoint: mean survival time, dose: 200.0 mg/kg/injection, schedule: Q04DX003 (ip), vehicle: saline with Tween-80
[3] = endpoint: mean survival time, dose: 400.0 mg/kg/injection, schedule: Q04DX003 (ip), vehicle: saline with Tween-80
[4] = endpoint: mean survival time, dose: 200.0 mg/kg/injection, schedule: Q01DX001 (ip), vehicle: saline
[5] = endpoint: mean survival time, dose: 100.0 mg/kg/injection, schedule: Q01DX001 (ip), vehicle: saline
[6] = endpoint: mean survival time, dose: 400.0 mg/kg/injection, schedule: Q01DX001 (ip), vehicle: saline
[7] = endpoint: mean survival time, dose: 100.0 mg/kg/injection, schedule: Q04DX003 (ip), vehicle: saline
[8] = endpoint: mean survival time, dose: 200.0 mg/kg/injection, schedule: Q04DX003 (ip), vehicle: saline
[9] = endpoint: mean survival time, dose: 400.0 mg/kg/injection, schedule: Q04DX003 (ip), vehicle: saline
[10] = endpoint: mean survival time, dose: 6.25 mg/kg/injection, schedule: Q01DX009 (ip), vehicle: saline with Tween-80
[11] = endpoint: mean survival time, dose: 12.5 mg/kg/injection, schedule: Q01DX009 (ip), vehicle: saline with Tween-80
[12] = endpoint: mean survival time, dose: 25.0 mg/kg/injection, schedule: Q01DX009 (ip), vehicle: saline with Tween-80
[13] = endpoint: mean survival time, dose: 50.0 mg/kg/injection, schedule: Q01DX009 (ip), vehicle: saline with Tween-80
[14] = endpoint: mean survival time, dose: 100.0 mg/kg/injection, schedule: Q01DX009 (ip), vehicle: saline with Tween-80
[15] = endpoint: mean survival time, dose: 50.0 mg/kg/injection, schedule: Q04DX002 (ip), vehicle: saline with Tween-80
[16] = endpoint: mean survival time, dose: 100.0 mg/kg/injection, schedule: Q04DX002 (ip), vehicle: saline with Tween-80
[17] = endpoint: mean survival time, dose: 200.0 mg/kg/injection, schedule: Q01DX009 (ip), vehicle: saline with Tween-80
[18] = endpoint: mean survival time, dose: 400.0 mg/kg/injection, schedule: Q01DX009 (ip), vehicle: saline with Tween-80

Measured: T/C

O=C(C/C(=N\N(C(=O)c1ccccc1)c1ccccc1)c1ccccc1)c1ccccc1
inactive: [1] 92 % of control | [2] 97 % of control | [3] 100 % of control

O=C(O)c1ccccc1O.[Fe]
inactive: [4] 112 % of control

CCOC(=O)c1cnn(C)c1N
inactive: [5] 103 % of control | [1] 102 % of control | [4] 103 % of control | [2] 102 % of control | [6] 97 % of control | [3] 104 % of control

O=C1NC(=O)C(Br)C(=O)N1
inactive: endpoint: mean survival time, dose: 75.0 mg/kg/injection, schedule: Q01DX001 (ip), vehicle: saline 102 % of control | endpoint: mean survival time, dose: 150.0 mg/kg/injection, schedule: Q01DX001 (ip), vehicle: saline 100 % of control

CC1=CCCC1
inactive: [7] 98 % of control | [8] 101 % of control | [9] 95 % of control

Cn1c2nc(=O)n(-c3ccccc3)c(=O)c-2nc2c1CCCC2
inactive: endpoint: mean survival time, dose: 3.12 mg/kg/injection, schedule: Q01DX009 (ip), vehicle: saline with Tween-80 100 % of control | [10] 100 % of control | [11] 98 % of control | [12] 101 % of control | [13] 100 % of control | [14] 106 % of control

[N-]=[N+]=NC1=C(Br)C(=O)OC1COC(=O)c1ccccc1 (stereo unspecified)
inactive: [15] 90 % of control | [16] 90 % of control

CCCCCCCC/C=C\CCCCCCCC(=O)NCCCN(C)CCCNC(=O)CCCCCCC/C=C/CCCCCCCC
inactive: endpoint: mean survival time, dose: 75.0 mg/kg/injection, schedule: Q01DX001 (ip), vehicle: other 100 % of control | endpoint: mean survival time, dose: 150.0 mg/kg/injection, schedule: Q01DX001 (ip), vehicle: other 104 % of control | endpoint: mean survival time, dose: 300.0 mg/kg/injection, schedule: Q01DX001 (ip), vehicle: other 100 % of control

COc1cc2c(cc1OC)C(Cc1ccc(NC(=O)c3ccc(C(=O)Nc4ccc(CC5c6cc(OC)c(OC)cc6CCN5C)cc4)cc3)cc1)N(C)CC2 (stereo unspecified)
inactive: endpoint: mean survival time, dose: 100.0 mg/kg/injection, schedule: Q01DX001 (ip), vehicle: other 107 % of control | endpoint: mean survival time, dose: 200.0 mg/kg/injection, schedule: Q01DX001 (ip), vehicle: other 101 % of control | endpoint: mean survival time, dose: 400.0 mg/kg/injection, schedule: Q01DX001 (ip), vehicle: other 103 % of control

CCCCS.[Hg]
inactive: [10] 95 % of control | [11] 96 % of control | [12] 95 % of control

CCN(CC)CC(O)CNc1ncnc(N)c1C(=C(C)C)c1ccc(Cl)cc1 (stereo unspecified)
inactive: [12] 101 % of control | [13] 97 % of control | [14] 97 % of control | [1] 101 % of control

COc1ccc(CNCCO)cc1O
inactive: [5] 101 % of control | [4] 98 % of control | [6] 98 % of control

COC(=O)c1cncn1C1c2ccccc2-c2ccccc21
inactive: [15] 103 % of control | endpoint: mean survival time, dose: 100.0 mg/kg/injection, schedule: Q01DX001 (ip), vehicle: saline with Tween-80 86 % of control | [16] 98 % of control | endpoint: mean survival time, dose: 200.0 mg/kg/injection, schedule: Q01DX001 (ip), vehicle: saline with Tween-80 91 % of control | endpoint: mean survival time, dose: 200.0 mg/kg/injection, schedule: Q04DX002 (ip), vehicle: saline with Tween-80 95 % of control | endpoint: mean survival time, dose: 400.0 mg/kg/injection, schedule: Q01DX001 (ip), vehicle: saline with Tween-80 91 % of control

NN=C(c1ccccc1)c1ccccc1
inactive: endpoint: mean survival time, dose: 150.0 mg/kg/injection, schedule: Q04DX003 (ip), vehicle: Klucel (hydroxypropylcellulose) (HPC) 93 % of control | endpoint: mean survival time, dose: 225.0 mg/kg/injection, schedule: Q04DX003 (ip), vehicle: Klucel (hydroxypropylcellulose) (HPC) 95 % of control | endpoint: mean survival time, dose: 335.0 mg/kg/injection, schedule: Q04DX003 (ip), vehicle: Klucel (hydroxypropylcellulose) (HPC) 98 % of control

O=[N+]([O-])c1ccc(O/N=C(\CN2CCCC2)c2ccc(Cl)cc2)c([N+](=O)[O-])c1
inactive: endpoint: mean survival time, dose: 100.0 mg/kg/injection, schedule: Q01DX001 (ip), vehicle: Klucel (hydroxypropylcellulose) (HPC) 90 % of control | endpoint: mean survival time, dose: 200.0 mg/kg/injection, schedule: Q01DX001 (ip), vehicle: Klucel (hydroxypropylcellulose) (HPC) 87 % of control | endpoint: mean survival time, dose: 400.0 mg/kg/injection, schedule: Q01DX001 (ip), vehicle: Klucel (hydroxypropylcellulose) (HPC) 98 % of control

CC(C)(C)C1CCC(S(=O)c2ccc([N+](=O)[O-])cc2[N+](=O)[O-])CC1 (stereo unspecified)
inactive: [14] 90 % of control | [1] 94 % of control | [17] 91 % of control | [2] 98 % of control | [18] 86 % of control | [3] 88 % of control

C[N+](C)(C)C.N=C=O.N=C=O.N=C=O.N=C=O.[Co+2]
inactive: endpoint: mean survival time, dose: 10.0 mg/kg/injection, schedule: Q01DX009 (ip), vehicle: saline 98 % of control

Nc1nc(OCc2ccccc2)ncc1C(=O)NCC(=O)O
inactive: [11] 105 % of control | [12] 100 % of control | [13] 104 % of control

[Cl][Pt][Cl].[NH-]C(CCC(N)=O)C(=O)O (stereo unspecified)
inactive: endpoint: median survival time, dose: 12.5 mg/kg/injection, schedule: Q04DX003 (ip), vehicle: water 100 % of control | endpoint: median survival time, dose: 25.0 mg/kg/injection, schedule: Q04DX003 (ip), vehicle: water 101 % of control | endpoint: median survival time, dose: 50.0 mg/kg/injection, schedule: Q04DX003 (ip), vehicle: water 108 % of control | endpoint: median survival time, dose: 100.0 mg/kg/injection, schedule: Q04DX003 (ip), vehicle: water 107 % of control | endpoint: median survival time, dose: 200.0 mg/kg/injection, schedule: Q04DX003 (ip), vehicle: water 111 % of control

Brc1cccc2c1CCCC2
inactive: [1] 97 % of control | [2] 95 % of control | [3] 103 % of control

CCOC(=O)CC1NCCS1 (stereo unspecified)
inactive: [5] 97 % of control | [4] 96 % of control | [6] 94 % of control

CCOC(=O)C1=C(NC(=O)Nc2cccc(C(F)(F)F)c2)SC2CCCCC12 (stereo unspecified)
inactive: [13] 94 % of control | [14] 91 % of control | [17] 87 % of control

O=C(Nc1cccc(Cl)c1)c1c[nH]c2cc(Cl)ccc2c1=O
inactive: [14] 101 % of control | [1] 96 % of control | [17] 95 % of control | [2] 93 % of control | [18] 101 % of control | [3] 93 % of control

Cc1ccc(S(=O)(=O)C[n+]2ccc(C(=O)c3ccccc3)cc2)cc1
inactive: endpoint: mean survival time, dose: 25.0 mg/kg/injection, schedule: Q04DX002 (ip), vehicle: saline with Tween-80 90 % of control | [15] 97 % of control | [16] 97 % of control and 104 % of control

CCCCCCC[CH2][Sn]1([CH2]CCCCCCC)[O]C2C(CO)OC(n3ccc4c(N)ncnc43)C2[O]1 (stereo unspecified)
inactive: endpoint: mean survival time, dose: 0.78 mg/kg/injection, schedule: Q01DX005 (ip), vehicle: other 110 % of control | endpoint: mean survival time, dose: 1.56 mg/kg/injection, schedule: Q01DX005 (ip), vehicle: other 107 % of control | endpoint: mean survival time, dose: 3.13 mg/kg/injection, schedule: Q01DX005 (ip), vehicle: other 115 % of control | endpoint: mean survival time, dose: 6.25 mg/kg/injection, schedule: Q01DX005 (ip), vehicle: other 102 % of control

CC(=O)OC1CCCC2=CC(=O)CCC21C (stereo unspecified)
inactive: [1] 96 % of control | [2] 92 % of control

O=P1(N(CCCl)CCCl)NCCC2(O1)C1CC3CC(C1)CC2C3 (stereo unspecified)
inactive: endpoint: mean survival time, dose: 15.6 mg/kg/injection, schedule: Q01DX001 (ip), vehicle: distilled water + Tween-80 97 % of control | endpoint: mean survival time, dose: 31.3 mg/kg/injection, schedule: Q01DX001 (ip), vehicle: distilled water + Tween-80 96 % of control | endpoint: mean survival time, dose: 62.5 mg/kg/injection, schedule: Q01DX001 (ip), vehicle: distilled water + Tween-80 99 % of control | endpoint: mean survival time, dose: 125.0 mg/kg/injection, schedule: Q01DX001 (ip), vehicle: distilled water + Tween-80 86 % of control | endpoint: mean survival time, dose: 500.0 mg/kg/injection, schedule: Q01DX001 (ip), vehicle: distilled water + Tween-80 86 % of control

O=S1(=O)CC(Cl)C(Cl)C1 (stereo unspecified)
inactive: endpoint: mean survival time, dose: 50.0 mg/kg/injection, schedule: Q04DX003 (ip), vehicle: alcohol 105 % of control

NC(=O)c1csc(COCCO)n1
inactive: endpoint: median survival time, dose: 40.63 mg/kg/injection, schedule: Q01DX005 (ip), vehicle: water 102 % of control | endpoint: median survival time, dose: 81.25 mg/kg/injection, schedule: Q01DX005 (ip), vehicle: water 99 % of control | endpoint: median survival time, dose: 162.5 mg/kg/injection, schedule: Q01DX005 (ip), vehicle: water 103 % of control | endpoint: median survival time, dose: 325.0 mg/kg/injection, schedule: Q01DX005 (ip), vehicle: water 96 % of control

N#CC(CCN1CCCCC1)(c1ccccc1)c1ccccc1
inactive: [7] 97 % of control | [8] 102 % of control | [9] 97 % of control

CNCc1c[nH]c(=O)[nH]c1=O
inactive: [1] 102 % of control | [2] 98 % of control | [3] 94 % of control
